Measured values from PubChem BioAssay (NCI).
Where “and” joins values, the source holds several entries; their conditions need not be identical. Equal values may be shown once.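 Growth conditions: 96-well plates. Treatment: test compound, 48 hours, 5 concentrations. Analysis: linear interpolation between bracketing concentrations; unreached endpoints set to highest concentration. Here, GI50 denotes the concentration required for 50% inhibition of growth. At the TGI there is no net growth.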

Experiments:
Assay in all cases: NCI-60 cell line screen, 48 h
UACC-62 melanoma = test system: UACC-62 melanoma
U251 CNS = test system: U251 CNS
SNB-75 CNS = test system: SNB-75 CNS
SN12C renal = test system: SN12C renal
MALME-3M melanoma = test system: MALME-3M melanoma
A549 NSCLC = test system: A549 NSCLC
OVCAR-4 ovarian = test system: OVCAR-4 ovarian
A498 renal = test system: A498 renal
UACC-257 melanoma = test system: UACC-257 melanoma
MCF7 breast = test system: MCF7 breast

O=C1C2CC=CCC2C(=O)C12CCc1ccccc12 (stereo not given)
TGI (UACC-62 melanoma): > 100 µM
TGI (U251 CNS): > 100 µM
TGI (SNB-75 CNS): > 100 µM
TGI (SN12C renal): > 100 µM
TGI (MALME-3M melanoma): > 100 µM
TGI (A549 NSCLC): > 100 µM
TGI (OVCAR-4 ovarian): > 100 µM

COc1cc2cc3c4c(cc(OC)c(OC)c4c2cc1OC)CCN3C(=O)N(C)C
TGI (A498 renal): > 100 µM
TGI (UACC-62 melanoma): > 100 µM
TGI (U251 CNS): > 100 µM
TGI (UACC-257 melanoma): > 100 µM
TGI (SNB-75 CNS): > 100 µM
TGI (SN12C renal): > 100 µM
TGI (MALME-3M melanoma): > 100 µM
TGI (A549 NSCLC): > 100 µM
TGI (OVCAR-4 ovarian): > 100 µM

C/C(CC(=O)Nc1ccc(Cl)cc1)=N\NC(=O)C[n+]1ccccc1
TGI (UACC-62 melanoma): > 100 µM
TGI (U251 CNS): > 100 µM
TGI (UACC-257 melanoma): > 100 µM
TGI (SNB-75 CNS): > 100 µM
TGI (MALME-3M melanoma): > 100 µM
TGI (A549 NSCLC): > 100 µM

Cc1ccc(C(=O)N2c3ccccc3N(C)n3cccc3C2CC(=O)O)cc1 (stereo not given)
TGI (A498 renal): > 100 µM
TGI (UACC-62 melanoma): > 100 µM
TGI (UACC-257 melanoma): > 100 µM
TGI (SNB-75 CNS): > 100 µM
TGI (SN12C renal): > 100 µM
TGI (MALME-3M melanoma): > 100 µM
TGI (A549 NSCLC): > 100 µM
TGI (OVCAR-4 ovarian): > 100 µM

CC(=O)OCc1ccc(O)c(C=O)c1
TGI (UACC-62 melanoma): > 100 µM
TGI (U251 CNS): > 100 µM
TGI (UACC-257 melanoma): > 100 µM
TGI (SNB-75 CNS): > 100 µM
TGI (SN12C renal): > 100 µM
TGI (MALME-3M melanoma): > 100 µM
TGI (MCF7 breast): > 100 µM
TGI (A549 NSCLC): > 100 µM
TGI (OVCAR-4 ovarian): > 100 µM

CC(C)(c1ccc(Oc2ccc(C#N)c(C#N)c2)cc1)c1ccc(Oc2ccc(C#N)c(C#N)c2)cc1
GI50 (A498 renal): > 100 µM
TGI (A498 renal): > 100 µM
GI50 (UACC-62 melanoma): > 100 µM
TGI (UACC-62 melanoma): > 100 µM
GI50 (U251 CNS): > 100 µM
TGI (U251 CNS): > 100 µM
TGI (SNB-75 CNS): 89.2 µM
GI50 (SN12C renal): > 100 µM
TGI (SN12C renal): > 100 µM
GI50 (MALME-3M melanoma): > 100 µM
TGI (MALME-3M melanoma): > 100 µM
GI50 (A549 NSCLC): > 100 µM
TGI (A549 NSCLC): > 100 µM
GI50 (OVCAR-4 ovarian): > 100 µM
TGI (OVCAR-4 ovarian): > 100 µM

COc1c2c(c(CC=C(C)C)c3oc(=O)c(-c4ccc(O)cc4)c(O)c13)OC(C)(C)C=C2
TGI (A498 renal): > 100 µM
TGI (UACC-62 melanoma): 46.6 µM
TGI (U251 CNS): 27.8 µM
TGI (UACC-257 melanoma): > 100 µM
TGI (SN12C renal): > 100 µM
TGI (MALME-3M melanoma): 70.2 µM
TGI (MCF7 breast): 54.3 µM
TGI (A549 NSCLC): > 100 µM
TGI (OVCAR-4 ovarian): 58 µM

NC(=S)N/N=C/c1ccc(O)cn1
GI50 (A498 renal): 12.4 µM and 36 µM
TGI (A498 renal): 131 µM and 292 µM
GI50 (UACC-62 melanoma): 2.83 µM and 3.13 µM and 1.83 µM
TGI (UACC-62 melanoma): 10.7 µM and 13.1 µM and 37.3 µM
GI50 (U251 CNS): 9.35 µM and 6.93 µM
TGI (U251 CNS): 391 µM and 602 µM
GI50 (UACC-257 melanoma): 25.6 µM and 34 µM
TGI (UACC-257 melanoma): 74.2 µM and 112 µM and 149 µM
GI50 (SNB-75 CNS): 13.8 µM
TGI (SNB-75 CNS): 60.4 µM and 227 µM
GI50 (SN12C renal): 8.5 µM and 7.93 µM
TGI (SN12C renal): 312 µM and 119 µM
GI50 (MALME-3M melanoma): 31 µM and 13.4 µM
TGI (MALME-3M melanoma): 113 µM and 138 µM
GI50 (MCF7 breast): 2.03 µM
TGI (MCF7 breast): > 1500 µM
GI50 (A549 NSCLC): 33.2 µM and 41.1 µM
TGI (A549 NSCLC): > 1500 µM and 584 µM

COC1=C2C[C@H](O)C(C)C[C@@]2(OC)OC1=O (stereo not given in full)
TGI (A498 renal): > 100 µM
TGI (UACC-62 melanoma): > 100 µM
TGI (U251 CNS): > 100 µM
TGI (UACC-257 melanoma): > 100 µM
TGI (SNB-75 CNS): > 100 µM
TGI (SN12C renal): > 100 µM
TGI (MALME-3M melanoma): > 100 µM
TGI (A549 NSCLC): > 100 µM
TGI (OVCAR-4 ovarian): > 100 µM

CC(C)(O)[C@@H]1CC[C@@]2(C)CCC[C@H](O)[C@H]2C1
TGI (A498 renal): > 100 µM
TGI (UACC-62 melanoma): > 100 µM
TGI (U251 CNS): > 100 µM
TGI (UACC-257 melanoma): > 100 µM
TGI (SNB-75 CNS): > 100 µM
TGI (SN12C renal): > 100 µM
TGI (MALME-3M melanoma): > 100 µM
TGI (A549 NSCLC): > 100 µM
TGI (OVCAR-4 ovarian): > 100 µM

CC(=O)C1COC(O)C1C (stereo not given)
TGI (A498 renal): > 100 µM
TGI (UACC-62 melanoma): 27.2 µM
TGI (U251 CNS): 58.2 µM
TGI (UACC-257 melanoma): > 100 µM
TGI (SNB-75 CNS): 70.4 µM
TGI (SN12C renal): 50.6 µM
TGI (MCF7 breast): 67.3 µM
TGI (A549 NSCLC): > 100 µM

O=[P+](O)c1cc2ccccc2c2ccccc12
TGI (UACC-62 melanoma): > 100 µM
TGI (U251 CNS): > 100 µM
TGI (SNB-75 CNS): > 100 µM
TGI (SN12C renal): > 100 µM
TGI (A549 NSCLC): > 100 µM
TGI (OVCAR-4 ovarian): > 100 µM

CSc1nc(SC)c2c(C(N)=S)[nH]nc2n1
TGI (A498 renal): 71.7 µM
TGI (UACC-62 melanoma): 55.6 µM
TGI (U251 CNS): 46.1 µM
TGI (UACC-257 melanoma): 52.5 µM
TGI (SNB-75 CNS): 76.5 µM
TGI (SN12C renal): > 100 µM
TGI (MALME-3M melanoma): 88 µM
TGI (A549 NSCLC): 65.6 µM
TGI (OVCAR-4 ovarian): 55.8 µM

COC(=O)[C@@]1(O)CC(C)C=C1C=O (stereo not given in full)
TGI (A498 renal): > 100 µM
TGI (UACC-62 melanoma): > 100 µM
TGI (U251 CNS): 38.4 µM
TGI (UACC-257 melanoma): > 100 µM
TGI (SNB-75 CNS): > 100 µM
TGI (SN12C renal): > 100 µM
TGI (MALME-3M melanoma): > 100 µM
TGI (A549 NSCLC): 60.9 µM
TGI (OVCAR-4 ovarian): > 100 µM

C[C@]1(C(=O)O)N[C@H](C(=O)O)CS1
GI50 (UACC-62 melanoma): > 1000 µM
TGI (UACC-62 melanoma): > 1000 µM
GI50 (U251 CNS): > 1000 µM
TGI (U251 CNS): > 1000 µM
GI50 (UACC-257 melanoma): > 1000 µM
TGI (UACC-257 melanoma): > 1000 µM
GI50 (SNB-75 CNS): > 1000 µM
TGI (SNB-75 CNS): > 1000 µM
GI50 (MALME-3M melanoma): > 1000 µM
TGI (MALME-3M melanoma): > 1000 µM
GI50 (MCF7 breast): > 1000 µM
TGI (MCF7 breast): > 1000 µM
GI50 (A549 NSCLC): > 1000 µM
TGI (A549 NSCLC): > 1000 µM
GI50 (OVCAR-4 ovarian): > 1000 µM
TGI (OVCAR-4 ovarian): > 1000 µM

COc1ccc(-c2nnc(-c3c(C)n(C)n(-c4ccccc4)c3=O)o2)cc1
TGI (A498 renal): > 100 µM
TGI (UACC-62 melanoma): > 100 µM
TGI (U251 CNS): > 100 µM
TGI (UACC-257 melanoma): > 100 µM
TGI (SNB-75 CNS): > 100 µM
TGI (SN12C renal): > 100 µM
TGI (MALME-3M melanoma): > 100 µM
TGI (A549 NSCLC): > 100 µM
TGI (OVCAR-4 ovarian): > 100 µM

CCCCCCCC(=O)OCC1OC(n2cc(F)c(=O)[nH]c2=O)C(NC(=O)OCc2ccccc2)C(O)C1O (stereo not given)
TGI (A498 renal): > 100 µM
TGI (UACC-62 melanoma): > 100 µM
TGI (U251 CNS): > 100 µM
TGI (UACC-257 melanoma): > 100 µM
TGI (SNB-75 CNS): > 100 µM
TGI (SN12C renal): > 100 µM
TGI (MALME-3M melanoma): > 100 µM
TGI (A549 NSCLC): > 100 µM
TGI (OVCAR-4 ovarian): > 100 µM

COc1cc([C@H]2c3cc4c(cc3[C@H](NCc3ccc([N+](=O)[O-])cc3)C3COC(=O)[C@H]32)OCO4)cc(OC)c1O (stereo not given in full)
TGI (A498 renal): 2.67 µM
TGI (UACC-62 melanoma): 12.1 µM
TGI (U251 CNS): 3.26 µM
TGI (UACC-257 melanoma): > 81.8 µM
TGI (SNB-75 CNS): 6.6 µM
TGI (SN12C renal): 4.68 µM
TGI (MALME-3M melanoma): 17.3 µM
TGI (A549 NSCLC): 2.23 µM
TGI (OVCAR-4 ovarian): > 100 µM

CCC(=O)C(C)C(=O)C(=O)C(=O)OC (stereo not given)
TGI (A498 renal): > 100 µM
TGI (UACC-62 melanoma): > 100 µM
TGI (U251 CNS): > 68.2 µM
TGI (UACC-257 melanoma): > 100 µM
TGI (SNB-75 CNS): > 100 µM
TGI (SN12C renal): > 100 µM
TGI (MALME-3M melanoma): > 100 µM
TGI (A549 NSCLC): > 100 µM
TGI (OVCAR-4 ovarian): > 100 µM

O=C1[C@H]2ON(c3ccccc3)C(c3ccccc3F)[C@H]2C(=O)N1c1ccc(Cc2ccc(N3C(=O)[C@@H]4ON(c5ccccc5)C(c5ccccc5F)[C@@H]4C3=O)cc2)cc1 (stereo not given in full)
TGI (A498 renal): > 100 µM
TGI (UACC-62 melanoma): > 100 µM
TGI (U251 CNS): > 100 µM
TGI (UACC-257 melanoma): > 100 µM
TGI (SNB-75 CNS): > 100 µM
TGI (SN12C renal): > 100 µM
TGI (MALME-3M melanoma): > 100 µM
TGI (A549 NSCLC): > 100 µM
TGI (OVCAR-4 ovarian): > 100 µM

COc1cc(C=O)c(-c2cc3c(cc2C2(C)OCCS2)OCO3)c(OC)c1OC (stereo not given)
TGI (A498 renal): 23.9 µM
TGI (UACC-62 melanoma): 61.4 µM
TGI (U251 CNS): 72 µM
TGI (UACC-257 melanoma): 43.4 µM
TGI (SNB-75 CNS): 21.3 µM
TGI (SN12C renal): 49.8 µM
TGI (MALME-3M melanoma): 90.8 µM
TGI (A549 NSCLC): > 97 µM
TGI (OVCAR-4 ovarian): 173 µM

CN(C(=O)C12C3(C(=O)C(C)(C)C)C4C5(C#N)C3C1(C(=O)C(C)(C)C)C5C42C(=O)C(C)(C)C)C(C)(C)C (stereo not given)
TGI (A498 renal): > 50 µM
TGI (UACC-62 melanoma): > 50 µM
TGI (U251 CNS): > 50 µM
TGI (UACC-257 melanoma): > 50 µM
TGI (SNB-75 CNS): > 50 µM
TGI (SN12C renal): > 50 µM
TGI (MALME-3M melanoma): > 50 µM
TGI (A549 NSCLC): > 50 µM
TGI (OVCAR-4 ovarian): > 50 µM
